Measured values: patent US11358933B2, “Compounds and methods for inhibiting CYP26 enzymes” (Queen's University at Kingston, priority 2017, dated 2022)

Legend:
CYP26A1 = CYP26A1 (Homo sapiens (Human), UniProt O43174); experiment: Cell-based inhibitor assay ([3H]-RA metabolism), CYP26A1 stably transfected HeLa cells; conditions: for IC50: HeLa cell-based assay, 3 hours; for CYP26A1 Rel. to keto: IC50 relative to ketoconazole
Procedure: (§1) CYP26A1 or CYP26B1 stably transfected HeLa cells were maintained in Minimum Essential Medium (MEM) containing 10% fetal bovine serum (FBS) and 100 μg/mL hygromycin. Exponentially growing cells were harvested by incubation in trypsin. Cells were then collected and re-plated in 48-well culture plates at 5×10^5 cells in 0.2 mL of culture medium containing 0.05 μCi [^3H]-RA in the presence or absence of increasing concentrations of a test compound. The test compounds were diluted in dimethyl sulfoxide (DMSO) and then added in duplicate to wells at 0.01, 0.1, 1, 10 and 100 μM final concentration. As a positive control for inhibition of RA metabolism, cells were also incubated with ketoconazole at the same concentrations as above. Cells were incubated for 3 hours at 37° C. Retinoids were then extracted using the procedure of Bligh, et al., (1959), Canadian Journal of Biochemistry 37, 911-917, which was modified by using dichloromethane instead of chloroform. Each sample's water soluble radioactivity level was quantified using a β-scintillation counter (using Ecolume scintillation fluid, available from MP Biomedicals of Solon, Ohio, USA). IC50 values represented the concentration of inhibitor required to inhibit all trans-RA metabolism by 50%, and were derived from log transformed data.

[1] = tested on: Cyp26a1-luc construct in MCF-7 cells; experiment: Retinoid activity assay, Cyp26a1-luc reporter in MCF-7 cells; format: cell-based; conditions: 24 hours, firefly relative to Renilla luciferase
Description: This retinoid activity assay measures the ability of test compounds to induce expression of a transiently transfected RA sensitive reporter construct. In this assay, MCF-7 cells are transfected with a construct comprising an upstream promoter of the CYP26A1 gene containing 2 RA response elements driving expression of firefly luciferase (pCYP26A1-luc). Since CYP26A1 is highly inducible by RA in these cells, this construct serves as a sensitive reporter of retinod-like transcriptional activity.
MCF-7 cells were maintained in a RPMI-1640 medium containing 10% FBS. Exponentially growing cells were harvested by incubation in trypsin. Cells were then collected and plated in 24-well plates at 50,000 cells/well. Once cells reached 80-90% confluence (e.g., the next day), cells were transfected with two plasmids. The first plasmid was CYP26A1-luc construct (375 ng). The second plasmid was a control plasmid comprising the Renilla luciferase gene driven by constitutive thymidine kinase promoter (pRL-tk) (25 ng). Transfection was performed using FuGene 6 transfection reagent (Promega) with a 1:3 ratio of DNA:FuGene. 24 hours after transfection, cells were treated with test compounds diluted in DMSO in triplicate at 0.1, 1 and 10 μM final concentrations. As a positive control for reporter activation, cells were also treated with RA diluted in DMSO at the same concentrations listed above. DMSO treatment alone served as a negative control. After 24 hours of treatment, cells were harvested in passive lysis buffer (Promega) and luciferase activity in cell lysates were read using a luminometer. Data are expressed as the activity of firefly luciferase relative to Renilla luciferase (see Tables 3-5). For CYP26A1 inhibitor compounds, no activation of the reporter was detected, while the related retinoid-like compound induces luciferase expression.

CYP26B1 = CYP26B1 (Homo sapiens (Human), UniProt Q9NR63); experiment: Cell-based inhibitor assay ([3H]-RA metabolism), CYP26B1 stably transfected HeLa cells; conditions: for IC50: HeLa cell-based assay, 3 hours; for CYP26B1 Rel. to keto: IC50 relative to ketoconazole
Sequence of CYP26B1 (Q9NR63 whole entry): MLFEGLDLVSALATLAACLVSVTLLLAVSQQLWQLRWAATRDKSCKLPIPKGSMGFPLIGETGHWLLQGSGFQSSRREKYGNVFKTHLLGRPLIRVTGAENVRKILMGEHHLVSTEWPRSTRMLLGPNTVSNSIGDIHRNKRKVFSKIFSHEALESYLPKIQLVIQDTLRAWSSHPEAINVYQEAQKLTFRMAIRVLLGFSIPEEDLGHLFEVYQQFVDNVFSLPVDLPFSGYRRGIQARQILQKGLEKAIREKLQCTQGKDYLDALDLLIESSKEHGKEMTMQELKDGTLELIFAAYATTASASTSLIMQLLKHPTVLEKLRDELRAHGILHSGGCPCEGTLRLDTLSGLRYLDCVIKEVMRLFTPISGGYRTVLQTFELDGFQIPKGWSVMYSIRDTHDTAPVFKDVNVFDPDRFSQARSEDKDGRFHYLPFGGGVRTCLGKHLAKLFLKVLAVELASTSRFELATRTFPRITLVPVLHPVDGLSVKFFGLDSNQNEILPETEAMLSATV
Procedure: as §1

MV4-11 cells [2] = experiment: Leukemia cell differentiation by FACS (CD11b+), MV4-11 cells with or without stroma; format: cell-based, human; conditions: RA alone, without stroma
Procedure: (§2) Many human non-APL AML cell lines are sensitive to RA-induced differentiation. However, co-culture of leukemic cells with bone marrow stromal cells can block this effect of RA. This assay tests the ability of CYP26 inhibitor compounds to overcome the protective effect that stromal cells have on leukemic cell differentiation. For these experiments, OP9 mouse bone marrow stromal cells are grown MEM-α containing 20% FBS, in 24 well plates until a cell monolayer is formed. OP9 cells are then irradiated (15Gy) using a GammaCell 20 cesium-137 source (located at Queen's University) in order to induce growth arrest. Leukemic cells are then added to the irradiated monolayers, or control wells without OP9 cells. AML cell lines (150,000 cells) are then plated onto OP9 monolayers in their appropriated growth medium; THP-1 RPMI-1640 medium containing 10% FBS; MDSL, RPMI-1640 medium containing 10% FBS and 10 ng/ml recombinant human IL-3; Kasumi-1, RPMI-1640 containing 20% FBS; MV4-11, IMDM containing 10% FBS. […] Stained cells are then sorted by FACS in a BD FACS Aria 3 flow cytometer (Queen's University) using FACS Diva software, to assess percentage of cells that are CD11b^+, the relative expression levels of CD11b (by median fluorescence intensity—MFI), or percentage of CD34^+CD38^− leukemic stem cells (LSCs). […]

human AML THP-1 cells = experiment: Leukemia cell differentiation by FACS (PE-CD11b), THP-1 cells with or without OP9 stroma; format: cell-based; conditions: RA alone
Procedure: Many human non-APL AML cell lines are sensitive to RA-induced differentiation. However, co-culture of leukemic cells with bone marrow stromal cells can block this effect of RA. This assay tests the ability of CYP26 inhibitor compounds to overcome the protective effect that stromal cells have on leukemic cell differentiation. For these experiments, OP9 mouse bone marrow stromal cells are grown MEM-α containing 20% FBS, in 24 well plates until a cell monolayer is formed. OP9 cells are then irradiated (15Gy) using a GammaCell 20 cesium-137 source (located at Queen's University) in order to induce growth arrest. Leukemic cells are then added to the irradiated monolayers, or control wells without OP9 cells. AML cell lines (150,000 cells) are then plated onto OP9 monolayers in their appropriated growth medium; THP-1 RPMI-1640 medium containing 10% FBS; MDSL, RPMI-1640 medium containing 10% FBS and 10 ng/ml recombinant human IL-3; Kasumi-1, RPMI-1640 containing 20% FBS; MV4-11, IMDM containing 10% FBS. Cells are then treated for 72 hours with DMSO (vehicle control), RA (0.1 μM for THP-1 and MV4-11 cells, and 1 μM for Kasumi-1 cells), test CYP26 inhibitor compound, or the combination of RA and inhibitor compound. After the treatment period, leukemic cells are collected and stained with fluorophore labeled antibodies against cell surface antigens indicative of myeloid differentiation (PE-CD11b), or of stem cell populations (FITC-CD34, PE-CD38); all antibodies are available from BD Biosciences. Stained cells are then sorted by FACS in a BD FACS Aria 3 flow cytometer (Queen's University) using FACS Diva software, to assess percentage of cells that are CD11b^+, the relative expression levels of CD11b (by median fluorescence intensity—MFI), or percentage of CD34^+CD38^− leukemic stem cells (LSCs). Results are typically presented as the average of triplicates.

kasumi-1 human AML cells = experiment: CD34+CD38- LSC analysis by FACS, Kasumi-1 cells with or without OP9 stroma; format: cell-based; conditions: 1 μM RA alone, without stroma
Procedure: as §2

rhino mice = experiment: Rhino mouse model of acne; format: in vivo; conditions: topical 10 nmol RA, 5 times per week, two weeks
Procedure: These experiments test the ability of CYP26 inhibitor compounds and other retinoids for potential anti-acne efficacy in a mouse model of acne. The rhino mouse model is a hairless mutant that develops skin lesions similar to acne, and has been used extensively as a model to assess new acne treatments, as well as in vivo activity of retinoids. Test compounds or RA were dissolved in acetone/10% DMSO, and 0.4 ml was applied topically to the dorsal skin of animals (2 male+2 female) once a day for five days per week, for two consecutive weeks. On the day after the last treatment, animals were sacrificed and skin was collected from the treated are and processed for histology, and epidermal sheets prepared for visualization of utriculi. Histological sections were prepared by paraffin embedding of formalin fixed samples, and stained with hematoxylin and eosin. Photographs were taken under a Nikon Eclipse E600 microscope using Q Imaging software at 20× magnification. Epidermal sheets were prepared by treating skin samples for 5 days in 0.5% acetic acid at 4° C. for 5 days, after which the dermal and epidermal layers were carefully separated, and the epidermis was then dehydrated with a series of ethanol treatments (70%, 80%, 90% and 100%). […]

MV4-11 cells [3] = experiment: Leukemia cell apoptosis (FITC-Annexin V), MV4-11 cells; format: cell-based, human; conditions: RA alone
Procedure: RA can also induce apoptosis is a variety of cell types, including AML cells. This experiment tests CYP26 inhibitor compounds for their ability to rescue RA-induced apoptosis in the presence of bone marrow stromal cells. For these experiments MV4-11 AML cells are plated as above, in the presence and absence of stromal monolayers. Cells are then treated for 48 hours with RA (0.1 μM). After the treatment period, cells are stained with a FITC-labeled annexin V antibody (available from Thermofisher Scientific), which binds to the surface of apoptotic cells. Cells are then sorted by FACS in a as above and data are expressed as percentage of annexin V^+ (apoptotic) cells.

THP-1 cells = experiment: Leukemia cell colony formation, THP-1 cells; format: cell-based, human; conditions: RA alone, without stroma
Procedure: This experiment is used to test the long-term proliferative ability of hematopoietic stem and progenitor cells as well as leukemic stem cells. Colony forming ability in long term cultures is indicative of stem/progenitor cell activity. […] For these experiments, bone marrow stromal and leukemic cell co-cultures are prepared as described above and treated with RA and/or CYP26 inhibitor compound for 72 hours. After the treatment period, leukemic cells are collected and re-plated in semi-solid methylcellulose medium to assess colony forming ability. 500 leukemic cells are plated per dish in 35 mm plates in 1.1 ml of MethoCult (available from STEMCELL Technologies, Vancouver, Canada). Triplicate plates are prepared per treatment, and cultures are grown for 14-16 days in a CO2 incubator. After the culture period colonies are counted under a dissecting microscope.

Sequence of CYP26A1 (O43174 whole entry): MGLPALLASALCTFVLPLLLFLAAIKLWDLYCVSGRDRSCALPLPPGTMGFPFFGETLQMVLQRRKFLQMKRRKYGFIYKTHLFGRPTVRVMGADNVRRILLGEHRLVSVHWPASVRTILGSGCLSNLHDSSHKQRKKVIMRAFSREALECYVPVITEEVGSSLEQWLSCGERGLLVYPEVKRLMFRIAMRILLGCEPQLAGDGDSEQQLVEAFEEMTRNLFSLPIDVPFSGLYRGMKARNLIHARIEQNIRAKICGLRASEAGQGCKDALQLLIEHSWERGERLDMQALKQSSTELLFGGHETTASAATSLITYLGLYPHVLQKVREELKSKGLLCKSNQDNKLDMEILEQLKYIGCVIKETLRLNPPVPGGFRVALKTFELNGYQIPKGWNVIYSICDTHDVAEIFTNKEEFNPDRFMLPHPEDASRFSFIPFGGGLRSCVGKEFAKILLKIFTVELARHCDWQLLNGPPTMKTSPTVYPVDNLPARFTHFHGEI

| Compound | IC50 (CYP26A1) [µM] | CYP26A1 Rel. to keto (CYP26A1) | IC50 (CYP26B1) [µM] | CYP26B1 Rel. to keto (CYP26B1) | Rel. Luciferase Activity (mean) ([1]; 0.1 μM) | Rel. Luciferase Activity (mean) ([1]; 1 μM) | Rel. Luciferase Activity (mean) ([1]; 10 μM) | Percentage of CD11b+ cells (MV4-11 cells [2]) | CD11b marker expression (MFI) (human AML THP-1 cells) | Number of CD34+CD38- cells (LSCs) (kasumi-1 human AML cells) | Utriculi size and epidermis thickness (rhino mice) | Apoptosis (Annexin V positive cells) (MV4-11 cells [3]) | Colony forming ability (THP-1 cells) |
| --- | --- | --- | --- | --- | --- | --- | --- | --- | --- | --- | --- | --- | --- |
| CC1(C)CC(C)(C)c2cc(C(=O)Cc3ccc(CC(=O)O)cc3)cc(C3CC3)c2O1 [Compound 028] | > 1000 |  | > 1000 |  | .0165 | .0094 | .0144 |  |  |  |  |  |  |
| CC(C)(C)c1cccc(B(O)Oc2ccc(/C=C/C(=O)O)cc2)c1 [Compound 029] |  |  | 54.9 | 5.7 | .0386 | .0384 | .0333 |  |  |  |  |  |  |
| CC1(C)CC(C)(C)c2cc(B3Oc4ccc(CC(=O)O)cc4O3)cc(C3CC3)c2O1 [Compound 030] | 31.5 | 20 | 88.1 | 9.2 | .0411 | .0343 | .0385 |  |  |  |  |  |  |
| CC(C)(C)c1cccc(-c2cc3cc(/C=C/C(=O)O)ccc3o2)c1 [Compound 031] |  |  | 18.3 | 2 | .0039 | .0047 | .0034 |  |  |  |  |  |  |
| CC1(C)CC(C)(C)c2cc(-c3cc4cc(CC(=O)O)ccc4o3)cc(C3CC3)c2O1 [Compound 033] |  |  |  |  | .0024 | .0026 | .0027 |  |  |  |  |  |  |
| CC1=C(/C=C/C(C)=C/C=C/C(C)=C/C(=O)O)C(C)(C)CCC1 [RA, retinoic acid, reference compound] |  |  |  |  |  |  |  | increased the percentage of | significantly increases expression of the CD11b marker | significantly reduced the number of these cells | reduction in the size of these utriculi, and a thickening of the epidermis | undergo apoptosis in response to RA | reduced in THP-1 cells by exposure to RA |

Continued, in another order:

| IC50 (CYP26A1) [µM] | CYP26A1 Rel. to keto (CYP26A1) | IC50 (CYP26B1) [µM] | CYP26B1 Rel. to keto (CYP26B1) | Compound | Rel. Luciferase Activity (mean) ([1]; 0.1 μM) | Rel. Luciferase Activity (mean) ([1]; 1 μM) | Rel. Luciferase Activity (mean) ([1]; 10 μM) | Percentage of CD11b+ cells (MV4-11 cells [2]) | CD11b marker expression (MFI) (human AML THP-1 cells) | Number of CD34+CD38- cells (LSCs) (kasumi-1 human AML cells) | Utriculi size and epidermis thickness (rhino mice) | Apoptosis (Annexin V positive cells) (MV4-11 cells [3]) | Colony forming ability (THP-1 cells) |
| --- | --- | --- | --- | --- | --- | --- | --- | --- | --- | --- | --- | --- | --- |
| 45.6 | 21.7 | 17.9 | 4.2 | CC(C)(C)c1cccc(C(=O)Cc2ccc(/C=C/C(=O)O)cc2)c1 [Compound 025] | .0144 | .01 | .0128 |  |  |  |  |  |  |
| 8.6 | 1.2 | 8.8 | 0.9 | C=CCc1cc(C(=O)Cc2ccc(CC(=O)O)cc2)cc2c1OC(C)(C)CC2(C)C [Compound 027] | .0116 | .0099 | .0121 |  |  |  |  |  |  |
| 8.6 | 1.2 | 2.3 | 0.3 | CC(C)(C)c1cccc(-c2cc3cc(CC(=O)O)ccc3o2)c1 [Compound 032] | .0019 | .0015 | .0004 |  |  |  |  |  |  |
| 9.6 | 1.9 | 0.5 | 0.2 | Cc1ccc(C(C)(C)C)cc1-c1cc2cc(/C=C/C(=O)O)ccc2[nH]1 [Compound 034] |  |  |  |  |  |  |  |  |  |
